Consider one compound from patent US20070233400A1, “Method of calculating environmental risk of a chemical” (AMSTED Industries Incorporated, priority 2006, published 2007).

The conditions of data set [1]: oral pathway; more conservative of carcinogenic or chronic value; published sources; cited from earlier work.
The conditions of data set [2]: sand. The text has this: Mobility it defined as the ability of a chemical to migrate in the environment. Mobility of a chemical in the environment is governed by two factors that include the physical chemistry of the chemical and the physical and chemical characteristics of the geologic environment to which the chemical is released.
To obtain a value to represent the mobility of each compound, two variables are used: Henry's Law constant (H), which focuses on the physical chemistry of the chemical and the retardation factor (R), which focuses on the physical and chemical characteristics of the geological environment. The retardation factor was calculated by first calculating the distribution coefficient using Equation 1. Kd=(Foc)(Koc) where: Kd=distribution coefficient (mL·g^−1); Koc=organic carbon partition coefficient (1/mg); Foc=fraction of organic carbon in soil (mg/mg)
Values for the organic carbon partition coefficient can be obtained from location-specific testing of soil or from various published sources. And the fraction of organic carbon in soil can be obtained from location-specific testing of soil or from various published sources.
Once the distribution coefficient is calculated, the Retardation Factor can be calculated using Equation 2. [formula] where: R is the retardation factor; ρb=bulk density of aquifer matrix (g/cm^3); Kd=distribution coefficient (mL·g^−1); η=effective porosity Henry's Law constant (H) (atm.·mol^−1·m^−3) is a measure of the tendency for organic solutes to volatilize. It is related to vapor pressure (VP) (atm.), molecular weight (MW) (g/mol); and solubility in water (Ws) (g/L) according to Equation (3): H=(VP)/(MW)(Ws) With Henry's Law constant and the retardation factor in place, the mobility of a specific compound is expressed as Equation (4): M=(H)(R) where: M=mobility; H=Henry's Law constant; R=retardation factor

The conditions of data set [3]: published sources; cited from earlier work.

Each structure is given as a SMILES string.

With `c1ccccc1` [benzene], the “toxicity value (T)” value in data set [1] is reported as 0.04 mg/kg-day^−1. For the same compound, the “mobility factor (M)” value in data set [2] (M=(H)(R)) came to 0.2576. Also, the “distribution coefficient (Kd)” value in data set [2] (Foc 0.0003 mg/mg, Kd=Foc×Koc) worked out at 0.0177 mL/g. Further, the “retardation factor (R)” value in data set [2] (bulk density 1.8 g/cm^3, effective porosity 0.25) came out at 1.13. The “Henry's Law constant (H)” value in data set [3] is 0.228 atm.·mol^−1·m^−3.
